Data reported in patent US6919317B2, “Pharmaceutical composition comprising squalene epoxidase inhibitor and macrolide immunomodulator” (priority 2000, dated 2005).

Tests used:
Type in all cases: cell-based
[1] = test system: Candida albicans; experiment: NCCLS broth dilution combination study in yeast (modified M27-T), Candida albicans isolate; settings: for Antifungal activity of test compound alone: C. albicans isolate; for Interaction with fluconazole, C. albicans / Interaction with terbinafine, C. albicans: interpretation of FICI, MIC = 80% inhibition of growth, 48 hours; for Interaction with terbinafine, C. albicans: 37°, pH 7.0, isolate susceptible to both drugs
Method: (§1) Combination studies are performed with Candida species, using the NCCLS standard assay (National Committee for Clinical Laboratory Standards [1995], Reference method for broth dilution antifungal susceptibility testing of yeasts (Tentative Standard M27-T, NCCL, Villanova, Pa., U.S.A.), modified as follows: the assay is effected in RPMI 1640 medium without NaHCO3 but with L-glutamine buffered with MOPS at pH 7.0 at 37°. The inoculum is 2.5×10^3 cfu/ml. Incubation times are 48 hours. The MIC is defined as the lowest drug concentration causing 80% inhibition of fungal growth.
(§2) The reference test compound (either terbinafine or fluconazole) is tested in a full concentration range in the absence or presence of the other test drug at 1, 2, 4, and 8 μg/ml.
(§3) Interaction between the drugs is analysed by calculation of the Fractional Inhibitory Concentration Index (FICI), defined as: FICI=[(MIC A in combination)/MIC A]+[MIC B in combination]/MIC B]
(§4) Interpretation of FICI in terms of interaction between the two drugs is as follows: FICI=0.5: synergy; <0.5<FICI=1: additive; 1<FICI=2: indifferent; 2<FICI: antagonism (in practical terms, synergy by this definition means that the MICs of both drugs are reduced by at least 2 dilution steps when used in combination).
(§5) The ability of the four test compounds 33-epichloro,33-desoxyascomycin, 5,6-dehydroascomycin, ascomycin and tacrolimus to influence the antifungal activity of terbinafine and fluconazole was examined in a Candida albicans isolate susceptible to both drugs, and in one isolate of Candida krusei which is resistant to terbinafine and poorly responsive to fluconazole.

[2] = test system: Candida krusei; experiment: NCCLS broth dilution combination study in yeast (modified M27-T), Candida krusei isolate; settings: for Antifungal activity of test compound alone: C. krusei isolate; for Interaction with terbinafine as reference compound (in words): against Candida krusei; for Interaction with fluconazole, C. krusei / Interaction with terbinafine, C. krusei: interpretation of FICI, MIC = 80% inhibition of growth, 48 hours; for Interaction with fluconazole, C. krusei: isolate poorly responsive to fluconazole; for Interaction with terbinafine, C. krusei: isolate resistant to terbinafine
Method: as §1, §2, §3, §4, §5

[3] = test system: Microsporum canis (strain NFI 5167); experiment: Checkerboard combination study in dermatophyte, modified NCCLS microdilution M38-P; settings: for MIC single drug: MIC = lowest concentration causing 80% inhibition of fungal growth; for MIC single drug / MIC combination: unit assumed; for MIC combination: terbinafine hydrochloride combined with 33-epichloro,33-desoxyascomycin, MIC = 80% inhibition
Method: Minimum Inhibitory Concentrations (MIC) against dermatophytes are determined in 96-well assay trays by a modification of the NCCLS microdilution procedure M38-P (National Committee for Clinical Laboratory Standards, Reference method for broth antifungal susceptibility testing of conidium-forming filamentous fungi; NCCLS document M38-P; NCCLS, Wayne, Pa., USA [1998]), as detailed in H. A. Norris et al., J. Am. Acad. Dermatol. 40 [1999] S9-S13). The MIC is defined as the lowest drug concentration causing 80% inhibition of fungal growth.
Combination studies are performed in a checkerboard design using the above assay to provide a matrix of all possible dose combination of the two drugs within the required concentration range. The matrix structure is provided by the microtiter trays used for the assay. The terbinafine dilution series is arranged on the y-axis (in columns) and the partner drug on the x-axis (in rows). In each row, well no. 1 contains the sterility control, well no. 2 contains terbinafine hydrochloride alone, wells no. 3 to no. 11 contain the dilution series of the partner drug 33-epichloro,33-desoxyascomycin, and well no. 12 contains the growth control. In each column, well A contains the partner drug alone and wells B to H contain the dilution series of terbinafine hydrochloride.
The nature of the interaction between the two drugs is defined quantitatively by means of the Fractional Inhibitory Concentration Index (FICI), which is calculated by the following formula: FICI=[(MIC A in combination)/MIC A]+[(MIC B in combination)/MIC B].
Interpretation of the FICI is: • ≦0.5: synergy; • >0.5 but ≦1: additive; • >1 but ≦2: indifferent; • >2: antagonism.
In practice, synergy calculated in this way is equivalent to a reduction of at least 2 dilution steps in the MIC of each drug when they are combined.

Compound	Antifungal activity of test compound alone [1]	Interaction with fluconazole, C. albicans [1]	Interaction with terbinafine, C. albicans [1]	Antifungal activity of test compound alone [2]	Interaction with terbinafine as reference compound (in words) [2]	Interaction with fluconazole, C. krusei [2]	Interaction with terbinafine, C. krusei [2]	Interaction of fluconazole with the macrolide test compounds (in words) ([1]; Candida albicans, statement covers both Candida isolates)	Interaction of fluconazole with the macrolide test compounds (in words) ([2]; Candida krusei, statement covers both Candida isolates)	FICI ([3]; combination with terbinafine hydrochloride)	Interpretation (of FICI) ([3]; combination with terbinafine hydrochloride, ≦0.5: synergy)	MIC single drug [3]	MIC combination [3]
CC[C@@H]1/C=C(\C)C[C@H](C)C[C@H](OC)[C@H]2O[C@@](O)(C(=O)C(=O)N3C=CCC[C@H]3C(=O)O[C@H](/C(C)=C/[C@@H]3CC[C@@H](O)[C@H](OC)C3)[C@H](C)[C@@H](O)CC1=O)[C@H](C)C[C@@H]2OC [5,6-Dehydro-ascomycin, {1R,5Z,9S,12S-[1E-(1R,3R,4R)],13R,14S,17R,18E,21S,23S,24R,25S,27R}-17-ethyl-1,14-dihydroxy-12-[2-(4-hydroxy-3-methoxycyclohexyl)-1-methylvinyl]-23,25-dimethoxy-13,19,21,27-tetramethyl-11,28-dioxa-4-azatricyclo[22.3.1.0(4,9)]octacos-5,18-diene-2,3,10,16-tetraone]	completely inactive	− (−: indifferent/antagonistic)	+ (+: additive)	completely inactive	strongly positive	− (−: indifferent/antagonistic)	− (−: indifferent/antagonistic)						
C=CC[C@@H]1/C=C(\C)C[C@H](C)C[C@H](OC)[C@H]2O[C@@](O)(C(=O)C(=O)N3CCCC[C@H]3C(=O)O[C@H](/C(C)=C/[C@@H]3CC[C@@H](O)[C@H](OC)C3)[C@H](C)[C@@H](O)CC1=O)[C@H](C)C[C@@H]2OC [Tacrolimus, tacrolimus]	completely inactive	− (−: indifferent/antagonistic)	+ (+: additive)	completely inactive	powerfully synergistic	− (−: indifferent/antagonistic)	(* ((*: synergy)						
OC(Cn1cncn1)(Cn1cncn1)c1ccc(F)cc1F [fluconazole]								no potent synergy	no potent synergy				
CC[C@@H]1/C=C(\C)C[C@H](C)C[C@H](OC)[C@H]2O[C@@](O)(C(=O)C(=O)N3CCCC[C@H]3C(=O)O[C@H](/C(C)=C/[C@@H]3CC[C@@H](O)[C@H](OC)C3)[C@H](C)[C@@H](O)CC1=O)[C@H](C)C[C@@H]2OC [Ascomycin, ascomycin]	completely inactive	− (−: indifferent/antagonistic)	+ (+: additive)	completely inactive	powerfully synergistic	− (−: indifferent/antagonistic)	(* ((*: synergy)						
CC[C@@H]1/C=C(\C)C[C@H](C)C[C@H](OC)[C@H]2O[C@@](O)(C(=O)C(=O)N3CCCC[C@H]3C(=O)O[C@H](/C(C)=C/[C@@H]3CC[C@H](Cl)[C@H](OC)C3)[C@H](C)[C@@H](O)CC1=O)[C@H](C)C[C@@H]2OC [33-Epichloro,33-desoxy-ascomycin, {[1E-(1R,3R,4S)]1R,9S,12S, 13R,14S,17R,18E, 21S,23S,24R,25S,27R}-12-[2-(4-chloro-3-methoxycyclohexyl)-1-methylvinyl]-17-ethyl-1,14-dihydroxy-23,25-dimethoxy-13,19,21,27-tetramethyl-11,28,dioxa-4-azatricyclo [22.3.1.0(4,9)]octacos-18-ene-2,3,10,16-tetraone]	completely inactive	− (−: indifferent/antagonistic)	+ (+: additive)	completely inactive	strongly positive	− (−: indifferent/antagonistic)	− (−: indifferent/antagonistic)			0.28	synergy	64 mg/L	16 mg/L
CN(C/C=C/C#CC(C)(C)C)Cc1cccc2ccccc12 [terbinafine, (E)-N-methyl-N-(1-naphthylmethyl)-6,6-dimethylhept-2-en-4-amin]												0.031 mg/L	0.001 mg/L
